Experimental data taken from US8847018B2, “Plants tolerant to HPPD inhibitor herbicides” (Bayer CropScience AG, priority 2009, dated 2014).
Like-named read-outs stand apart in the source and are kept apart here.

What was measured:
(UniProt Q0SF39) [1] = assay: biochemical; type: biochemical, Rhodococcus sp. (strain RHA1), isolate ro02040; conditions: read-out: pI50 (converted)
[2] = system: Rhodococcus HPPD SEQ ID No. 19 (FMP23e); assay: biochemical; type: biochemical, Rhodococcus sp. (strain RHA1), isolate ro02040
(UniProt Q0SF39) [3] = assay: HPLC assay of HPPD in vitro kinetic properties; type: biochemical, Rhodococcus sp. (strain RHA1), isolate ro02040
(UniProt Q0SC92) = assay: biochemical; type: biochemical, Rhodococcus sp. (strain RHA1), isolate ro03041; conditions: read-out: pI50 (converted)
[4] = system: Rhodococcus HPPD SEQ ID No. 5 (FMP22e); assay: biochemical; type: biochemical, Rhodococcus sp. (strain RHA1), isolate ro03041
[5] = system: Rhodococcus HPPD SEQ ID No. 19 (FMP23e); assay: HPLC assay of HPPD in vitro kinetic properties; type: biochemical, Rhodococcus sp. (strain RHA1), isolate ro02040; conditions: substrate HPP, 10 to 400 μM; SEQ ID No. 19
[6] = biological target: T1, Arabidopsis thaliana HPPD SEQ ID No. 10 (Arabidopsis thaliana, UniProt P93836); assay: HPLC assay of HPPD in vitro kinetic properties; conditions: substrate HPP, 10 to 400 μM; SEQ ID No. 10
T1 sequence (P93836 with tags, fused parts or gaps): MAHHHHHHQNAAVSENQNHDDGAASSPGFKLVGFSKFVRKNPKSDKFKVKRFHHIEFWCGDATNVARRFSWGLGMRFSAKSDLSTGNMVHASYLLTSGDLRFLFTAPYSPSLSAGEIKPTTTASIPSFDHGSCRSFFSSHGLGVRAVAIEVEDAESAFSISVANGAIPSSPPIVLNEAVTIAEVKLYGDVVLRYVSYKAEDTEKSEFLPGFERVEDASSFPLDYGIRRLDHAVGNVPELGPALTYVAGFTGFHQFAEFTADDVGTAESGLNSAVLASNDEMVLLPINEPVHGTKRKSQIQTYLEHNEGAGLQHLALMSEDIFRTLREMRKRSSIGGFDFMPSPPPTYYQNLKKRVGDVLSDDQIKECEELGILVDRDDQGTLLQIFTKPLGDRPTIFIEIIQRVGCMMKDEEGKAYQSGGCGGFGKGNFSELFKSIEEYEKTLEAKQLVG
Experimental: All assays were started by the addition of HPPD enzyme to the assay mixture and stopped at a series of times between 0 and 240 s by addition of 200 μl of the reaction mixture to reaction assay tubes containing 20 μl 10% perchloric acid. Precipitated protein was pelleted by a 5 minute centrifugation at 10,000 g. […] For Km and Vmax value determinations the initial rates of the HPPD reaction at different substrate concentrations were determined from plots of HGA formed versus time and fitted to the Michaelis-Menten equation for unireactant enzymes using the ID Business Solutions Ltd. (idbs.com) XLfit software suite.

[7] = biological target: T1, Arabidopsis thaliana HPPD SEQ ID No. 10; assay: HPPD activity in presence of HPPD inhibitors (pI50, % inhibition); type: biochemical; design: made in house; host or cells: E. coli K-12 BL21 (pQE30-AtHPPD)
[8] = system: T1 tobacco plants carrying FMP23e; assay: Response to bicyclopyrone, T1 tobacco classified by injury; type: in vivo, Nicotiana tabacum; conditions: 100 g AI/ha, 7 DAT, FMP23e line 188
Source text: (§1) Seeds of wild type tobacco plants and T1 tobacco plants carrying the gene from Rhodococcus sp. (strain RHA1), isolate ro03041 FMP22e coding for HPPD FMP22 or plants carrying the gene from Rhodococcus sp. (strain RHA1) isolate ro02040 FMP23e coding for HPPD FMP23 were sown on MS media (Murashige and Skoog […]) supplemented with […] kanamycin. After 4 weeks, rooted green plantlets were transferred to soil and grown for 3 weeks in the glasshouse as described above then sprayed with a mixture containing bicyclopyrone (100 g Al/ha), ammonium sulfate and methyl ester raps oil. The plants were classified in two categories based on the phenotype developed in response to the herbicide seven days after the treatment. […] In this case, only plants containing at least one T-DNA were exposed to the herbicidal treatment.

Wild type tobacco plants = assay: as above; type: in vivo, Nicotiana tabacum; conditions: 100 g AI/ha, 7 DAT, line WT
Source text: as §1

[9] = system: T1 tobacco plants carrying FMP22e; assay: as above; type: in vivo, Nicotiana tabacum; conditions: 100 g AI/ha, 7 DAT; for Class I (number of plants): injury: 0-30%; for Class II (number of plants): injury: 31-100%
Source text: as §1

[10] = system: transgenic soybean shoots, FMP22t-h; assay: Soybean shoot greening on isoxaflutole selection; type: cell-based; conditions: isoxaflutole as selection marker
Source text: (§2) Soybean transformation is achieved using methods well known in the art, such as the one described using the Agrobacterium tumefaciens mediated transformation soybean half-seed explants described by Paz et al. (2006, Plant cell Rep. 25:206). Transformants were identified using Isoxaflutole as selection marker. The appearance of green shoots was observed, and documented as an indicator of tolerance to the herbicide isoxaflutole.

wild-type soybean shoots = assay: Soybean shoot greening on isoxaflutole selection; type: cell-based; conditions: same amount of isoxaflutole
Source text: as §2

[11] = system: transgenic soybean shoots, FMP23t-h; assay: Soybean shoot greening on isoxaflutole selection; type: cell-based; conditions: isoxaflutole as selection marker
Source text: as §2

[12] = system: tobacco plants containing Arabidopsis HPPD; assay: Glasshouse trial, herbicidal damage on T1 tobacco; type: in vivo, Nicotiana tabacum; conditions: 7 DAT, 100 g AI/ha spray; Arabidopsis HPPD line 258, single T1 plants
Experimental: T0 Tobacco plants containing either the gene from Arabidopsis coding for HPPD or the gene FMP22e from Rhodococcus sp. (strain RHA1), isolate ro03041 coding for FMP22 HPPD, or the gene FMP23e from Rhodococcus sp. (strain RHA1), isolate ro02040 mentioned above (Example 3), were transferred to the glasshouse (28/20° C.), to develop further and produce seeds. Those seeds were harvested and put on soil (ED73 mixed with sand and osmocote Pro) to germinate in the glasshouse (28/20° C.). Three to four weeks later, plantlets were transferred to single pots containing the soil mentioned above. Two weeks later, plants of a size 4-6 cm diameter were sprayed with either • tembotrione at 100 gAl/ha prepared from a WP20 (wettable powder 20%) formulation supplemented with ammonium sulfate and methyl ester raps oil, or • isoxaflutole at 100 gAl/ha prepared from a WP20 formulation supplemented with ammonium sulfate and methyl ester raps oil, or • bicyclopyrone at 100 gAl/ha prepared from a WP20 formulation supplemented with ammonium sulfate and methyl ester raps oil, or • “blind formulation” made from a WP20 formulation without active ingredient (Al) supplemented with ammonium sulfate and methyl ester raps oil, and were then transferred to a growth chamber with adequate light conditions (20000 Lux).

[13] = SEQ ID No. 19, 5.0 × 10^−6 M inhibitor
[14] = SEQ ID No. 5, 5.0 × 10^−6 M inhibitor

## CS(=O)(=O)c1cc(C(F)(F)F)ccc1C(=O)C(C#N)C(=O)C1CC1 (stereo not drawn) [Diketonitrile, 2-cyano-3-cyclopropyl-1-(2-methylsulphonyl-4-trifluoromethylphenyl)-propane-1,3-dione]
(UniProt Q0SF39) [1]
  IC50: 25.1 µM
[2]; [13]
  percentage of inhibition compared to activity in absence of the inhibitor: 11%
(UniProt Q0SF39) [3]
  Ki: 3.6 µM
(UniProt Q0SC92)
  IC50: 15.8 µM
[4]; [14]
  percentage of inhibition compared to activity in absence of the inhibitor: 27%

## O=C(O)C(=O)Cc1ccc(O)cc1 [HPP, para-hydroxyphenylpyruvate]
[5]
  Km: 35 µM
  Vmax: 1.1 µM
[6]
  Km: 6.3 µM
  Vmax: 1.2 µM

## Cc1ccc(C(=O)COc2c(C(=O)c3ccc(Cl)c(C)c3Cl)c(C)nn2C)cc1 [Benzofenap]
(UniProt Q0SF39) [1]
  IC50: 2.51 µM
[2]; [13]
  percentage of inhibition compared to activity in absence of the inhibitor: 72%
(UniProt Q0SC92)
  IC50: 3.98 µM
[4]; [14]
  percentage of inhibition compared to activity in absence of the inhibitor: 57%

## Cc1nn(C)c(O)c1C(=O)c1ccc(C(F)(F)F)cc1S(C)(=O)=O [Pyrasulfotole]
[7]; 2 mM HPP, 3 minutes incubation
  pI50: 5.4
[7]; 5.0 × 10^−6 M inhibitor
  percentage of inhibition compared to activity in absence of the inhibitor: 69%
[2]; SEQ ID No. 19, 2 mM HPP, 3 minutes incubation
  pI50: 4.1
[2]; [13]
  percentage of inhibition compared to activity in absence of the inhibitor: 2%
[4]; SEQ ID No. 5, 2 mM HPP, 3 minutes incubation
  pI50: 4.0
[4]; [14]
  percentage of inhibition compared to activity in absence of the inhibitor: 0%

## CS(=O)(=O)c1ccc(C(=O)C2C(=O)CCCC2=O)c([N+](=O)[O-])c1 [Mesotrione, 2-[4-(methylsulfonyl)-2-nitrobenzoyl]-1,3-cyclohexanedione]
[2]
  percentage of inhibition compared to activity in absence of the inhibitor: 67%
[4]
  percentage of inhibition compared to activity in absence of the inhibitor: 54%

## COCCOCc1nc(C(F)(F)F)ccc1C(=O)C1=C(O)C2CCC(C2)C1=O (stereo not drawn) [Bicyclopyrone, 4-hydroxy-3-[[2-[(2-methoxyethoxy)methyl]-6-(trifluoromethyl)-3-pyridinyl]carbonyl]bicyclo[3.2.1]oct-3-en-2-one]
(UniProt Q0SF39) [1]
  IC50: 63.1 µM
[2]; [13]
  percentage of inhibition compared to activity in absence of the inhibitor: 1%
(UniProt Q0SC92)
  IC50: 126 µM
[4]; [14]
  percentage of inhibition compared to activity in absence of the inhibitor: 0%
[8]
  % of tolerant plant: 59%
[8]; injury: 0-30%
  Class I (number of plants): 100
[8]; injury: 31-100%
  Class II (number of plants): 70
Wild type tobacco plants
  % of tolerant plant: 0%
Wild type tobacco plants; Class I: no to light injuries (injury: 0-30%)
  Class I (number of plants): 0
Wild type tobacco plants; Class II: strong injuries (injury: 31-100%)
  Class II (number of plants): 12
[9]; FMP22e line 64
  % of tolerant plant: >50%
  Class I (number of plants): >100
  Class II (number of plants): 104
[9]; FMP22e line 65
  % of tolerant plant: 64%
  Class I (number of plants): 86
  Class II (number of plants): 48
[9]; FMP22e line 163
  % of tolerant plant: 50%
  Class I (number of plants): 45
  Class II (number of plants): 46

## CS(=O)(=O)c1ccc(C(=O)C2C(=O)CCCC2=O)c(Cl)c1 [Sulcotrione, 2-[2-chloro-4-(methylsulfonyl)benzoyl]-1,3-cyclohexanedione]
[2]
  pI50: 5.5
  percentage of inhibition compared to activity in absence of the inhibitor: 73%
[4]
  pI50: 5.3

## CS(=O)(=O)c1ccc(C(=O)C2C(=O)CCCC2=O)c(Cl)c1COCC1CCCO1 (stereo not drawn) [Tefuryltrione, 2-[2-chloro-4-(methylsulfonyl)-3-[[(tetrahydro-2-furanyl)methoxy]methyl]benzoyl]-1,3-cyclohexanedione]
(UniProt Q0SF39) [1]
  IC50: 2.51 µM
[2]; [13]
  percentage of inhibition compared to activity in absence of the inhibitor: 65%
(UniProt Q0SC92)
  IC50: 6.31 µM
[4]; [14]
  percentage of inhibition compared to activity in absence of the inhibitor: 43%

## CS(=O)(=O)c1cc(C(F)(F)F)ccc1C(=O)c1cnoc1C1CC1 [Isoxaflutole, (5-cyclopropyl-4-isoxazolyl)[2-(methylsulfonyl)-4-(trifluoromethyl)phenyl]methanone]
[10]
  transgenic tested shoots showing normal greening: 1.8%
wild-type soybean shoots
  appearance of shoots treated with isoxaflutole: entirely bleached
[11]
  transgenic tested shoots showing normal greening: 1.9%
[12]
  % injury: 100%
